Reference: article PMC13164762, “Development and Validation of an LC-MS/MS Method for the Quantitation of JNJ-64619178 (JNJ) in Mouse Plasma: Characterization of In Vitro and In Vivo Pharmacokinetic Properties” (Molecules, 2026)
Values joined by “and” are separate entries in the source; they are usually repeats but may differ in a detail not shown here. Equal entries are not always repeated. Where two headings read alike, the source gives them in different places.

How the values were obtained:
[1] = Microsomal metabolic stability, mouse liver microsomes; assay type: in vitro ADME
Protocol: (§1) Mouse and human liver microsomes were used for the metabolic stability assay. In brief, the incubation mixture (500 µL) consisted of phosphate-buffered saline (PBS) (100 mM, pH 7.4), microsomal protein (0.5 mg mL^−1), magnesium chloride (10 mM), and NADPH (2 mM). Following pre-incubation of the above reaction mixture for 10 min at 37 °C, the reaction was initiated by spiking JNJ at a final 1 µg mL^−1 concentration. Alongside the test compound, testosterone at a final concentration of 1 µg mL^−1 was incubated as a positive control. All experiments were performed in triplicate. At sampling times of 0, 5, 10, 20, 30, 45, and 60 min, 40 µL samples were collected and quenched with 300 µL ice-chilled acetonitrile supplemented with 10 µL IS. Simultaneously, samples from NADPH-free negative controls were also withdrawn and processed accordingly to confirm any non-enzymatic degradation. Finally, after 1 h of collection, samples were vortexed at 1000 rpm for 1 min and centrifuged at 2200× g for 15 min, and the collected supernatant was analyzed using LC-MS/MS.
(§2) The natural logarithm of the area ratio versus time was plotted, and the slope of the curve was calculated by a linear regression equation to generate the elimination rate constant, k (min^−1). CLint was calculated by the following equation:(2) CLint=0.693/t1/2×Volume of incubation mixture (mL)/microsomal protein (mg)
(§3) CLH,int of JNJ in the mouse and human liver was then estimated from CLint using the scaling factor.(3) CLH,int=CLint×Microsomal protein (mg)/Liver (g)×Liver weight (g)/Body weight (kg)
(§4) Here, 45 and 32 mg of microsomal protein per g of liver weight were applied, and 60 and 25 g of liver weight per kg body weight were used for mouse and human tissue, respectively.
Then, CLH,int was corrected for microsomal binding (CLH,int/fu,inc) and CLH,predict was predicted using the well-stirred model by the following equation:(4) CLH,predict=Q × fu,plasma×CLH,int/fu,inc /Q + fu,plasma×CLH,int/fu,inc
Here, Q is the hepatic blood flow (90 mL min^−1 kg^−1 in mouse), fu,plasma is the fraction unbound in plasma, fu,inc is the fraction unbound in microsomal incubation and CLH,int is included from Equation (3); fu,inc was calculated by adding logP of JNJ (2.3) to the following equation:(5) fu,inc=1/1 + 10^0.53 logP − 1.42

[2] = Rapid equilibrium dialysis (RED) brain protein binding; assay type: in vitro ADME, mouse; conditions: for fraction unbound at 5 h: mouse, brain homogenate
Protocol: A rapid equilibrium dialysis (RED) protein binding assay was performed to determine the protein binding of JNJ in plasma and brain matrix. The RED plate was obtained from Thermo Fisher Scientific (Frederick, MD, USA) for the experiment. An aliquot (200 µL) of JNJ spiked plasma/brain homogenate was poured into the donor chamber, and 400 µL dialysis buffer-PBS containing 100 mM sodium phosphate and 150 mM sodium chloride was added into the receiver compartment of each RED insert in triplicate. The plate was kept in incubation for 5 h on the orbital shaker at 37 °C. Following incubation, 50 µL plasma and buffer aliquots were collected separately, and an equal volume of opposite matrix was added. Collected samples were processed as previously described in Section 4.6 and analyzed using LC-MS/MS. Degree of protein binding (%) was calculated by the following equation:(6) Protein bound (%)=Concentrationdonor cell−Concentrationreceiver cell/Concentrationdonor cell×100

[3] = Microsomal metabolic stability, human liver microsomes; assay type: in vitro ADME
Protocol: as §1, §2, §3, §4

Nc1nc2cc(CC[C@H]3C[C@@H](n4ccc5c(N)ncnc54)[C@H](O)[C@@H]3O)ccc2cc1Br [JNJ, JNJ-64619178]
microsomal intrinsic clearance (CLint) ([1]; MLM, mean ± SD, n = 3): 0.02 ± 0.01 mL min^−1 mg^−1 protein | hepatic intrinsic clearance (CLH,int) ([1]; MLM, scaled from CLint (45 mg protein/g liver, 60 g liver/kg)): 41 ± 19 mL min^−1 kg^−1 body weight | predicted in vivo hepatic clearance (CLH,predict) ([1]; mice, in vitro scaling, well-stirred model): 1.6 mL min^−1 kg^−1 body weight and 1.6 ± 0.7 mL min^−1 kg^−1 body weight | half-life at 1 µg mL^−1 ([1]; mouse, liver microsomes, pH 7.4, MLM, mean ± SD, n = 3, read-out: Half-life (t1/2)): 1.68 ± 0.65 h | remaining at 1 h, 1 µg mL^−1 ([1]; mouse, liver microsomes, pH 7.4, MLMs, NADPH, 1 µg mL^−1, n = 3, read-out: percent remaining concentration after 1 h incubation): 60 ± 12% | Brain Protein Binding (%) ([2]; mouse brain homogenate, RED, 5 h, 37 °C, n = 3): 94 ± 1% | fraction unbound at 5 h ([2]; mouse brain homogenate, RED, 5 h, 37 °C, n = 3, read-out: Brain Protein Binding (%)): < 0.06 | fraction unbound at 5 h ([2]; mouse brain, read-out: fraction unbound in brain (fu,brain)): 0.057 | microsomal intrinsic clearance (CLint) ([3]; HLM, mean ± SD, n = 3): 0.01 ± 0.001 mL min^−1 mg^−1 protein | hepatic intrinsic clearance (CLH,int) ([3]; HLM, scaled from CLint (32 mg protein/g liver, 25 g liver/kg)): 7 ± 0.6 mL min^−1 kg^−1 body weight and 7 ± 0.5 mL min^−1 kg^−1 body weight | half-life at 1 µg mL^−1 ([3]; human, liver microsomes, pH 7.4, HLM, mean ± SD, n = 3, read-out: Half-life (t1/2)): 2.47 ± 0.167 h | remaining at 1 h, 1 µg mL^−1 ([3]; human, liver microsomes, pH 7.4, HLMs, NADPH, 1 µg mL^−1, n = 3, read-out: percent remaining concentration after 1 h incubation): 72 ± 2%
